Experiments:
hNav1.7 [1] = target: T1, hNav1.7 (Homo sapiens (Human), UniProt Q15858); assay: Patch voltage clamp electrophysiology (PatchXpress), HEK-293 cells, inactivated state block; assay type: cell-based; settings: read-out: EP_PX 293 hNav1.7 (IC50)
hNav1.7 [2] = target: T1, hNav1.7; assay: Tritiated aryl sulfonamide binding to membranes from cells expressing hNav1.7 and the β1 subunit (competitive binding); settings: read-out: NaV1.7 395 Memb Binding (IC50)
Procedure, shortened: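 Competitive displacement of 100 μM [3H]-labelled tritiated aryl sulfonamide from hNav1.7/β1 membranes, 18 h at room temperature in 100 mM NaCl, 20 mM Tris HCl pH 7.4. Non-specific binding defined with 1 μM unlabelled compound. Filter-bound radioactivity measured by liquid scintillation counting.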

[3] = HEK-293 cells, β1 coexpressed, inactivated state, holding −60 mV
[4] = membranes with hNav1.7 and β1 subunit, [3H]compound displacement, 18 h, room temperature

T1 sequence (Q15858 whole entry, looked up): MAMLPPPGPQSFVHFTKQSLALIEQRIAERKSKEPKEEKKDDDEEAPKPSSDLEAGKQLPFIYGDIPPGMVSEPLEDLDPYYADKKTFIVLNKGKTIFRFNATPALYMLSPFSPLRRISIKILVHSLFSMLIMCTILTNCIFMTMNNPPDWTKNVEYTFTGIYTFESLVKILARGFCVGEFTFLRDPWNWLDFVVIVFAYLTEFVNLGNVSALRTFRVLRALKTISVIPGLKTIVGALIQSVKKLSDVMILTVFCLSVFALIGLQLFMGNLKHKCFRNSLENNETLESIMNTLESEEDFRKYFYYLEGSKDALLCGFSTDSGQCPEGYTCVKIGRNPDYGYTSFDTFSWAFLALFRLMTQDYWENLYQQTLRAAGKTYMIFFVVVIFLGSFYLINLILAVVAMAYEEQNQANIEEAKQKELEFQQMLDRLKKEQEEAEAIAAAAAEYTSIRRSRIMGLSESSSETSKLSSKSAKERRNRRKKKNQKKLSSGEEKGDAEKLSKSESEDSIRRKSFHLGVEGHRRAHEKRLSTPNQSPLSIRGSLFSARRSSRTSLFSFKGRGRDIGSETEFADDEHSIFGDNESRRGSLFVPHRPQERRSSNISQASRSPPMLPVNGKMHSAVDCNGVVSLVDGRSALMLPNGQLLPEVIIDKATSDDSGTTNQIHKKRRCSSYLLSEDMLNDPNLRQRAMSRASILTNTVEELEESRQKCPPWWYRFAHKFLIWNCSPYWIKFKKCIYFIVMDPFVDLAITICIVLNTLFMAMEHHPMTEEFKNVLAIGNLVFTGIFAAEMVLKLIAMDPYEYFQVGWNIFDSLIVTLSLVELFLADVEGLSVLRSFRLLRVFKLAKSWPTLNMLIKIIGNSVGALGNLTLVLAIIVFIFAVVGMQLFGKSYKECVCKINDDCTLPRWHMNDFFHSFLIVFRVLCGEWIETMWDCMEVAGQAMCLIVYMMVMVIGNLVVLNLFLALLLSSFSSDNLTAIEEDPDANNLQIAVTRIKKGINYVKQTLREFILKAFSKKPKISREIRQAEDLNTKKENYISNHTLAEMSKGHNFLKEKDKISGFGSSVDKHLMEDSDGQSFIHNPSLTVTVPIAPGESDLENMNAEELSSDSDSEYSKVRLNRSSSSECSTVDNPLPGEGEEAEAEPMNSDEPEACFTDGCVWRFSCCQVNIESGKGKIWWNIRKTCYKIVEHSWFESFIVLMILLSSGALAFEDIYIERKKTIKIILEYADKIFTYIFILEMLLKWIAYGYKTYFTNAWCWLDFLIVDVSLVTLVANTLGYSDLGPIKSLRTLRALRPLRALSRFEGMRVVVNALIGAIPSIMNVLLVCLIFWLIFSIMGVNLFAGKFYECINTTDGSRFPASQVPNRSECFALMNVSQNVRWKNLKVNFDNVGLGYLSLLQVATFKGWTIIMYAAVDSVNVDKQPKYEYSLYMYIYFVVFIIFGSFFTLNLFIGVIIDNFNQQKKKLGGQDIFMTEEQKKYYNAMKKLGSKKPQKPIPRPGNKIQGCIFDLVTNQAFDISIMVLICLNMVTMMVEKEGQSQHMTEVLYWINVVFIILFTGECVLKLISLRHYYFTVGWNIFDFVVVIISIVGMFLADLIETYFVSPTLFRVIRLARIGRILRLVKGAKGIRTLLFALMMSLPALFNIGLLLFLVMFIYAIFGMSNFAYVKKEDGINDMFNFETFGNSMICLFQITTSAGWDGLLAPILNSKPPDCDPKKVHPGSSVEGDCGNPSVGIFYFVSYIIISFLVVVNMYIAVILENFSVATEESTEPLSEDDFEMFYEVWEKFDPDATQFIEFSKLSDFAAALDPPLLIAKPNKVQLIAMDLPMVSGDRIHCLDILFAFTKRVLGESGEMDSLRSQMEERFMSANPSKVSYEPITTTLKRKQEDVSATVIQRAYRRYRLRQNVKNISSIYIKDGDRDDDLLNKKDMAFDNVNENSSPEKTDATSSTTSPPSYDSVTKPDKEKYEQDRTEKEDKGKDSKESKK
T1 sequence (Q07699 whole entry partner, looked up): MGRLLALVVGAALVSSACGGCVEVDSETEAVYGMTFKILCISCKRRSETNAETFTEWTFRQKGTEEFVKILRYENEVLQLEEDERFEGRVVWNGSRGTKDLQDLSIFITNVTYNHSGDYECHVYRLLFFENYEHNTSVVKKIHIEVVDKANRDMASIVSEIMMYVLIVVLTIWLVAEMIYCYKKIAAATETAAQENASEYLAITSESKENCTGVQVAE

| IC50 (hNav1.7 [1]; [3]) [µM] | IC50 (hNav1.7 [2]; [4]) [µM] | Compound | IC50 (hNav1.7 [1]) [µM] | IC50 (hNav1.7 [2]) [µM] |
| --- | --- | --- | --- | --- |
| 0.009 | 0.005 | 4-(adamantan-1-ylmethoxy)-N-(azetidin-1-ylsulfonyl)-3-chloro-5-fluorobenzamide [Example 416] | – | – |
| 0.35 | 0.012 | O=C(NS(=O)(=O)N1CCC1)c1cc(C2CC2)c(OCC2CN(C(c3ccccc3)c3ccccc3)C2)cc1F (racemic) | – | – |
| 0.082 | 0.005 | O=C(NS(=O)(=O)C1CC1)c1cc(C2CC2)c(OCC2CN(C(c3ccccc3)c3ccccc3)C2)cc1F (single isomer, unassigned) | – | – |
| 0.0229 | 0.013 | CC12CC3CC(C)(C1)CC(COc1cc(F)c(C(=O)NS(C)(=O)=O)cc1Cl)(C3)C2 [Example 23] | – | – |
| 0.146 | 1.4 | CC(Oc1cc(F)c(C(=O)NS(C)(=O)=O)cc1Cl)C12CC3CC(CC(C3)C1)C2 (stereo not drawn) [Example 31] | – | – |
| 0.14 | 0.18 | O=C(NS(=O)(=O)C1CC1)c1cc(Cl)c(OC2CCC(Cl)(Cl)CC2)cc1F [Example 293] | – | – |
| 0.36 | 0.014 | CO[C@@H]1CCN(S(=O)(=O)NC(=O)c2cc(C3CC3)c(OCC34CC5CC(CC(C5)C3)C4)cc2F)C1 [Example 301] | – | – |
| 1.4 | 0.31 | CC1(OCc2cc(F)c(C(=O)NS(C)(=O)=O)cc2Cl)CCC(F)(F)CC1 [Example 305] | – | – |
| 0.18 | 0.02 | CS(=O)(=O)NC(=O)c1cc(C2CC2)c(O[C@H]2C3CC4CC2C[C@](F)(C4)C3)cc1F [Example 308] | – | – |
| – | – | CC1(C)CCC(COc2cc(F)c(C(=O)NS(=O)(=O)N3CCC3)cc2C2CC2)CC1 [Example 309] | 0.079 | 0.006 |
| 0.01 | 0.084 | CS(=O)(=O)NC(=O)c1cc(C2CC2)c(OCC23CCCCC2C3(F)F)cc1F (stereo not drawn) [Example 310] | – | – |
| 0.053 | 0.03 | COCCS(=O)(=O)NC(=O)c1cc(C2CC2)c(OCC23CCCCC2C3(F)F)cc1F (stereo not drawn) [Example 311] | – | – |
| 0.14 | 0.017 | O=C(NS(=O)(=O)N1CCC1)c1cc(C2CC2)c(COC23CC4CC(CC(C4)C2)C3)cc1F [Example 320] | – | – |
| 2.5 | 0.27 | CS(=O)(=O)NC(=O)c1cc(F)c(OCC23CC4CC(CC(C4)C2)C3)c(Cl)c1 [Example 325] | – | – |
| 0.012 | 0.003 | O=C(NS(=O)(=O)C1CC1)c1cc(C2CC2)c(OCC2(C(F)(F)F)CCC2)cc1F [Example 327] | – | – |
| 0.07 | 0.024 | O=C(NS(=O)(=O)C1CC1)c1cc(Cl)c(OCC2(C(F)(F)F)CCC2)cc1F [Example 328] | – | – |
| 0.02 | 0.004 | O=C(NS(=O)(=O)N1CCC1)c1cc(C2CC2)c(OCC2(C(F)(F)F)CCC2)cc1F [Example 329] | – | – |
| 0.091 | 0.025 | O=C(NS(=O)(=O)N1CCC1)c1cc(Cl)c(OCC2(C(F)(F)F)CCC2)cc1F [Example 330] | – | – |
| 0.71 | 0.45 | CC1(F)CCC(COc2cc(F)c(C(=O)NS(=O)(=O)N3CCC3)cc2Cl)CC1 (stereo not drawn) [Example 331] | – | – |
| 0.027 | 0.004 | O=C(NS(=O)(=O)C1CC1)c1cc(C2CC2)c(OC2C3CC4CC(C3)CC2C4)cc1F (stereo not drawn) [Example 332] | – | – |
| 3.3 | 0.31 | O=C(NS(=O)(=O)C1CC1)c1cc(Cl)c(OC2CCC(F)(F)CC2)cc1F [Example 339] | – | – |
| 0.067 | 0.014 | O=C(NS(=O)(=O)N1CCC1)c1cc(C2CC2)c(OCC2CC23CCCCC3)cc1F (stereo not drawn) [Example 347] | – | – |

| Compound | IC50 (hNav1.7 [1]; [3]) [µM] | IC50 (hNav1.7 [2]; [4]) [µM] | IC50 (hNav1.7 [1]) [µM] | IC50 (hNav1.7 [2]) [µM] |
| --- | --- | --- | --- | --- |
| 5-chloro-4-(cyclohexylmethoxy)-2-fluoro-N-(methylsulfonyl)benzamide [Example 21] | 0.107 | 1.06 | – | – |
| CC1(C)[C@@H]2CC[C@@]1(C)[C@@H](Oc1cc(F)c(C(=O)NS(C)(=O)=O)cc1Cl)C2 [Example 25] | 0.027 | 0.22 | – | – |

Source: patent publication US8952169B2 (Genentech, Inc., priority 2012, dated 2015)
